{"source": "paper PMC7935272", "about": "(PLoS Pathogens, 2021)", "key": {"[1]": {"molecular_target": "MeV L full length (Measles virus, UniProt Q9WMB3)", "experiment": "Biolayer interferometry, full-length MeV P-L", "format": "binding", "conditions": "for S5 A BLI sensorgram response / S5 D BLI response versus compound conc.: MeV L full length; for steady-state BLI sensor response: S7 A"}, "[2]": {"test_system": "MeV L-P complexes L H589Y", "format": "biochemical", "conditions": "de novo initiation, L H589Y vs WT"}, "[3]": {"test_system": "MeV mRNA transcripts (P, H, L)", "experiment": "qRT-PCR of MeV primary transcription in infected Vero-hSLAM cells", "format": "cell-based", "conditions": "for Transcription gradient, H mRNA, Predicted (LS) mean 2 / Transcription gradient, L mRNA, Predicted (LS) mean 2 / Transcription gradient, P mRNA, Predicted (LS) mean 2: Figure 3I, N2 3", "method": "Total RNA was extracted four hours after infection using Trizol and subjected to reverse transcription using either oligo-dT primers. Subsequent qPCR used primer pairs specific for MeV P mRNA, MeV H mRNA, MeV L mRNA, or human GAPDH mRNA, respectively. qPCR was performed using an Applied Biosystems 7500 Real-Time PCR System with a StepOnePlus Real-Time PCR System. Samples were normalized for GAPDH."}, "[4]": {"conditions": "cited from earlier work"}}, "note": "Entries after “also recorded” stand apart in the source; their conditions may differ."}
{"smiles": "Cn1nc(C(F)(F)F)cc1C(=O)Nc1ccc(S(=O)(=O)N2CCCC[C@H]2CCN2CCOCC2)cc1", "note": "[ERDRP-0519, S(=O)(=O)(N1[C@H](CCN2CCOCC2)CCCC1)c1ccc(NC(=O)c2n(C)nc(C(F)(F)F)c2)cc1]", "values": [{"measurement": "S5 A BLI sensorgram response", "setting": "[1]; 0.003 µM, time 0 s", "result": -0.0003139}, {"measurement": "S5 A BLI sensorgram response", "setting": "[1]; 0.003 µM, time 0.2 s", "result": -0.001098}, {"measurement": "S5 A BLI sensorgram response", "setting": "[1]; 0.003 µM, time 0.4 s", "result": -0.001645}, {"measurement": "S5 A BLI sensorgram response", "setting": "[1]; 0.003 µM, time 0.6 s", "result": -0.002393}, {"measurement": "S5 A BLI sensorgram response", "setting": "[1]; 0.027 µM, time 0 s", "result": 0.0009777}, {"measurement": "S5 A BLI sensorgram response", "setting": "[1]; 0.027 µM, time 0.2 s", "result": 0.001373}, {"measurement": "S5 A BLI sensorgram response", "setting": "[1]; 0.027 µM, time 0.4 s", "result": 0.001785}, {"measurement": "S5 A BLI sensorgram response", "setting": "[1]; 0.027 µM, time 0.6 s", "result": 0.001728}, {"measurement": "S5 A BLI sensorgram response", "setting": "[1]; 0.08 µM, time 0 s", "result": 0.003123}, {"measurement": "S5 A BLI sensorgram response", "setting": "[1]; 0.08 µM, time 0.2 s", "result": 0.003018}, {"measurement": "S5 A BLI sensorgram response", "setting": "[1]; 0.08 µM, time 0.4 s", "result": 0.00257}, {"measurement": "S5 A BLI sensorgram response", "setting": "[1]; 0.08 µM, time 0.6 s", "result": 0.002431}, {"measurement": "S5 A BLI sensorgram response", "setting": "[1]; 0.74 µM, time 0 s", "result": 0.002177}, {"measurement": "S5 A BLI sensorgram response", "setting": "[1]; 0.74 µM, time 0.2 s", "result": 0.002548}, {"measurement": "S5 A BLI sensorgram response", "setting": "[1]; 0.74 µM, time 0.4 s", "result": 0.002706}, {"measurement": "S5 A BLI sensorgram response", "setting": "[1]; 0.74 µM, time 0.6 s", "result": 0.002805}, {"measurement": "S5 A BLI sensorgram response", "setting": "[1]; 2.22 µM, time 0 s", "result": 0.01086}, {"measurement": "S5 A BLI sensorgram response", "setting": "[1]; 2.22 µM, time 0.2 s", "result": 0.01025}, {"measurement": "S5 A BLI sensorgram response", "setting": "[1]; 2.22 µM, time 0.4 s", "result": 0.009623}, {"measurement": "S5 A BLI sensorgram response", "setting": "[1]; 2.22 µM, time 0.6 s", "result": 0.009062}, {"measurement": "S5 D BLI response versus compound conc.", "setting": "[1]; compound conc. 0.003 uM", "result": 0.005655}, {"measurement": "S5 D BLI response versus compound conc.", "setting": "[1]; compound conc. 0.027 uM", "result": 0.009916}, {"measurement": "S5 D BLI response versus compound conc.", "setting": "[1]; compound conc. 0.08 uM", "result": 0.008265}, {"measurement": "S5 D BLI response versus compound conc.", "setting": "[1]; compound conc. 0.74 uM", "result": 0.01334}, {"measurement": "steady-state BLI sensor response", "setting": "[1]; 0.003 uM", "result": 0.006846}, {"measurement": "steady-state BLI sensor response", "setting": "[1]; 0.027 uM", "result": 0.008208}, {"measurement": "steady-state BLI sensor response", "setting": "[1]; 0.08 uM", "result": 0.009438}, {"measurement": "steady-state BLI sensor response", "setting": "[1]; 0.74 uM", "result": 0.01375}, {"measurement": "steady-state BLI sensor response", "setting": "[1]; 6.67 uM", "result": 0.01276}, {"measurement": "steady-state BLI sensor response", "setting": "[1]; 20 uM", "result": 0.01504}, {"measurement": "increase in IC50 value", "setting": "[2]", "result": 24, "unit": "fold"}, {"measurement": "MeV P mRNA levels", "setting": "[3]; 0.2 μM or 0.8 μM, 4 hours after infection, recMeV-Anc MOI 3", "result": "significantly decreased; also recorded: dose-dependently reduced"}, {"measurement": "Transcription gradient, H mRNA, Predicted (LS) mean 2", "setting": "[3]; 0.2 µM", "result": 0.1422}, {"measurement": "Transcription gradient, L mRNA, Predicted (LS) mean 2", "setting": "[3]; 0.2 µM", "result": 0.005639}, {"measurement": "Transcription gradient, P mRNA, Predicted (LS) mean 2", "setting": "[3]; 0.2 µM", "result": 1.063}, {"measurement": "Transcription gradient, H mRNA, Predicted (LS) mean 2", "setting": "[3]; 0.8 µM", "result": 0.1249}, {"measurement": "Transcription gradient, L mRNA, Predicted (LS) mean 2", "setting": "[3]; 0.8 µM", "result": 0.007941}, {"measurement": "Transcription gradient, P mRNA, Predicted (LS) mean 2", "setting": "[3]; 0.8 µM", "result": 1.011}, {"measurement": "CC50", "setting": "[4]", "result": 75, "unit": "µM"}]}
